According to PubChem BioAssay AID2060886 (Molecular Pharmacology Branch, DTP, NCI, 2025):
pIC50: −log10 of the molar value. Several values for one entry are separate records, joined by “and”; a condition that tells them apart may be missing. Identical values can stand only once.

Tested on: 653999-131-R-J2-PDC complex spheroids, growth inhibition
Assay: Anticancer human tumor 653999-131-R-J2-PDC patient-derived lung adenocarcinoma cell line growth inhibition [RAS]
Settings: for viability, T/C: stronger effect = lower value
Text: RAS pathway inhibitors in Combinations in Complex Spheroids
A high-throughput screen of multi-cell type tumor spheroids was designed to identify active combinations of RAS pathway inhibitors and targeted small molecules. Complex spheroids include a stromal component modeled by human endothelial cells (HUVEC) and fibroblasts modeled by human mesenchymal stem cells (MSCs). The concentration ranges selected for each drug and investigational agent were based upon clinically achievable concentrations if the clinical Cmax of the agent was known.
Compounds. The drugs and investigational agents: abemaciclib (NSC768073), cobimetinib (NSC768068), divarasib (GDC6063, NSC841802), docetaxel (NSC628503), GDC-1971 (RLY-1971, NSC841576), gemcitabine (NSC613327), inavolisib (NSC800729), ipatasertib (NSC767898), KB-0742 (NSC834161), MRTX-1133 (NSC836407), osimertinib (NSC779217), RMC-4630 (NSC839698), RMC-6236 (NSC851965), RMC-6291 (NSC852671), Ro-3306 (NSC812927), sapanisertib (NSC764658), SN-38 (NSC673596), staurosporine (NSC755774), SY5609 (NSC837396), and tovorafenib (DAY101, NSC766906), were obtained from the National Cancer Institute (NCI) Developmental Therapeutics Program Chemical Repository. The FDA-approved anticancer drug set is available from the NCI Developmental Therapeutics Program. […] The stock solutions were prepared in dimethyl sulfoxide (DMSO, Sigma-Aldrich, St. Louis, MO, cat. D2650) at 800-fold the tested concentration and stored at -70 degrees C prior to their use. All drugs and investigational agents were tested over a range starting from a high concentration at or near the clinical Cmax and decreasing in half-log increments. If the clinical Cmax for an agent had not been determined, the highest concentration tested was 10 microM.
Cell Culture. All cells were maintained in an incubator at 37 degrees C and 5% CO2 with 95% humidity. The PDC lines were cultured according to standard operating procedures established by the NCI PDMR. All PDCs were thawed and cultured in Matrigel-coated flasks prepared with a working solution of 1X Ham's F-12 nutrient mix, without supplementation (Invitrogen, Waltham, MA, cat. 11765054), 100 U/mL penicillin-streptomycin (Invitrogen, cat. 15140122), and 2.5% Matrigel (Corning Inc., Corning, NY, cat. 354248) for the first three passages. The 362531-283-R-J2-PDC and 782815-120-R-J1-PDC lines were cultured in 6C/Colon 1B media, which includes advanced DMEM/F-12 (Thermo Fisher Scientific, cat. 12634028), 10 mM HEPES (Thermo Fisher Scientific, cat. 15630080), 1X GlutaMAX supplement (Thermo Fisher Scientific, cat. 35050061), 0.1 mg/mL primocin (InvivoGen, San Diego, CA, cat. ant-pm-2), 10% defined fetal bovine serum, heat inactivated (HyClone Laboratories Inc., Logan, UT, cat. SH30070.03HI), 50% L-WRN conditioned media (ATCC, cat. CRL-3276), 1.25 mM N-Acetyl-L-cysteine (Sigma-Aldrich, cat. A9165), 10 mM nicotinamide (Sigma-Aldrich, cat. N0636), 1X B-27 supplement (Thermo Fisher Scientific, cat. 17504044), 1X N-2 supplement (Thermo Fisher Scientific, cat. 17502048), 50 ng/mL human EGF (Thermo Fisher Scientific, cat. PHG0311), and 10 microM Y-27632 dihydrochloride (Tocris Bioscience, cat. 1254). The K12877-001-R-J1-PDC line was cultured in 6I media, which includes all 6C/Colon 1B media plus 10 ng/mL human FGF-10 (PeproTech, cat. 100-26), 1 ng/mL human FGF-2 (PeproTech, cat. 100-18B), 1 µM prostaglandin E2 (Tocris Bioscience, cat. 2296), […] hydrocortisone (Sigma-Aldrich, cat. H4001), and […] bovine insulin (Sigma-Aldrich, cat. I6634). The K86415-001-R-J1-PDC line was cultured in 6D media, which includes all 6C/Colon 1B media components minus the L-WRN conditioned media. The 485176-168-R4-J1-PDC was cultured in PANC media, which includes all 6C/Colon 1B media plus 100 ng/mL human FGF-10 (PeproTech, cat. 100-26), 500 nM SB-431542 (Selleckchem, cat. S1067), and 10 nM gastrin (Tocris Bioscience, cat. 3006). […]
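Also: spheroids exposed to the agents for seven days before the readout.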

Structure (SMILES) | pIC50 (curve of compound) | IC50 (curve of compound) | viability, T/C (compound 0.0316 µM) | viability, T/C (compound 0.316 µM) | viability, T/C (compound 0.00316 µM) | viability, T/C (compound 0.01 µM) | viability, T/C (compound 1 µM) | viability, T/C (compound 0.1 µM) | viability, T/C (compound 0.000949 µM) | viability, T/C (compound 0.003 µM) | viability, T/C (compound 0.00949 µM) | viability, T/C (compound 0.03 µM) | viability, T/C (compound 0.0949 µM) | viability, T/C (compound 0.3 µM) | also measured
C=CC(=O)Nc1cc(Nc2nccc(-c3cn(C)c4ccccc34)n2)c(OC)cc1N(C)CCN(C)C | < 6.00 and 6.54 |  | 94.7% [middle of 4 runs] |  | 98% [middle of 4 runs] | 89.8% [middle of 4 runs] | 62.9% [middle of 4 runs] |  |  |  |  |  |  |  | 
CC(C)n1nc(-c2ccc3oc(N)nc3c2)c2c(N)ncnc21 | 7.71 and 7.81 |  | 43.1% and 40.6% and 35.8% |  | 87.7% and 76.8% and 77.8% | 61.8% and 63.5% and 57.9% |  | 34.1% and 25.4% and 27.2% |  |  |  |  |  |  | viability, T/C (compound 0.000316 µM): 87.2% and 81.4% and 79.2%; viability, T/C (compound 0.001 µM): 89.2% and 93.6% and 71.3%
CCn1c(-c2cc(N3CCN(C)CC3)cnc2C(C)OC)c2c3cc(ccc31)-c1csc(n1)CC(NC(=O)C1CC1C)C(=O)N1CCCC(N1)C(=O)OCC(C)(C)C2 (stereo unspecified) |  |  |  |  |  |  |  |  | 80.7% [middle of 7 runs] | 65.2% [middle of 7 runs] | 49.8% [middle of 7 runs] | 37.4% [middle of 7 runs] | 29.4% [middle of 7 runs] | 28.6% [middle of 7 runs] | IC50 (compound alone, run of 08/26/2024): 8.13 nM [middle of 7 runs]
CCn1c(-c2cccnc2C(C)OC)c2c3cc(ccc31)N1CCOC(CC(NC(=O)C(C(C)C)N(C)C(=O)C3(F)CCN(C(=O)C#CC(C)(C)N(C)C)CC3)C(=O)N3CCCC(N3)C(=O)OCC(C)(C)C2)C1 (stereo unspecified) |  |  |  |  |  |  |  |  |  | 95.1% [middle of 8 runs] | 99.5% [middle of 8 runs] | 104% [middle of 8 runs] | 99.9% [middle of 8 runs] | 107% [middle of 8 runs] | pIC50 (compound alone, run of 08/20/2024): < 6.52
Nc1ccn(C2OC(CO)C(O)C2(F)F)c(=O)n1 (stereo unspecified) |  | 99.5 nM [middle of 4 runs] | 62.9% [middle of 4 runs] | 43.1% [middle of 4 runs] | 90.2% [middle of 4 runs] | 76.4% [middle of 4 runs] | 34.1% and 30.3% (2×) and 33.9% | 51.2% [middle of 4 runs] |  |  |  |  |  |  | 

Further lines, with some results ahead:

pIC50 (curve of compound) | IC50 (curve of compound) | Structure (SMILES) | viability, T/C (compound 0.0316 µM) | viability, T/C (compound 0.316 µM) | viability, T/C (compound 0.00316 µM) | viability, T/C (compound 0.01 µM) | viability, T/C (compound 1 µM) | viability, T/C (compound 0.1 µM) | viability, T/C (compound 0.000949 µM) | viability, T/C (compound 0.003 µM) | viability, T/C (compound 0.00949 µM) | viability, T/C (compound 0.03 µM) | viability, T/C (compound 0.0949 µM) | viability, T/C (compound 0.3 µM) | also measured
< 6.00 |  | C=CC(=O)N1CCN(c2nc(OCC3CCCN3C)nc3c(F)c(-c4nc(N)cc(C)c4C(F)(F)F)c(Cl)cc23)C(C)C1 (stereo unspecified) | 107% [middle of 12 runs] | 107% [middle of 12 runs] |  |  |  |  |  |  |  |  |  |  | pIC50 (compound alone, run of 09/09/2024): < 6.00
< 6.52 |  | CC1(C)CCC(Nc2ncc(C(F)(F)F)c(-c3c[nH]c4c(P(C)(C)=O)c(C#N)ccc34)n2)CN1 (stereo unspecified) |  |  |  |  |  |  | 87.8% [middle of 4 runs] | 75.3% [middle of 4 runs] | 72% [middle of 4 runs] | 71.6% [middle of 4 runs] | 71.7% [middle of 4 runs] | 61.9% [middle of 4 runs] | 
< 6.00 |  | CCN1CCN(Cc2ccc(Nc3ncc(F)c(-c4cc(F)c5nc(C)n(C(C)C)c5c4)n3)nc2)CC1 | 73.8% [middle of 4 runs] | 80.7% [middle of 4 runs] | 87.8% [middle of 4 runs] | 96.6% [middle of 4 runs] | 83.8% [middle of 4 runs] |  |  |  |  |  |  |  | 
 | 9.95 nM [middle of 4 runs] | CCc1c2c(nc3ccc(O)cc13)-c1cc3c(c(=O)n1C2)COC(=O)[C@]3(O)CC |  |  |  |  |  |  | 85% [middle of 4 runs] | 66.5% [middle of 4 runs] | 49.5% [middle of 4 runs] | 38.3% [middle of 4 runs] | 26.5% [middle of 4 runs] | 13.7% [middle of 4 runs] | 
 | 112 nM [middle of 4 runs] | O=C(c1ccc(F)c(F)c1Nc1ccc(I)cc1F)N1CC(O)([C@@H]2CCCCN2)C1 |  | 28.2% [middle of 4 runs] |  | 77.5% [middle of 4 runs] | 11.1% [middle of 4 runs] | 51.2% [middle of 4 runs] |  |  |  |  |  |  | 
